Publication PMC6225228, “Design, Synthesis and Evaluation of N-pyrazinylbenzamides as Potential Antimycobacterial Agents” (Molecules : A Journal of Synthetic Chemistry and Natural …, 2018)
Like-named read-outs stand apart in the source and are kept apart here.

Tests used:
[1] = system: Trichophyton interdigitale 445; experiment: Antifungal microdilution broth, TI; format: cell-based; conditions: read-out: MIC TI
[2] = system: M. kansasii CNCTC My 235/80 (ATCC 12478); experiment: Antimycobacterial microdilution MABA, M. kansasii; format: cell-based, Mycobacterium kansasii; conditions: for MIC: Mycobacterium kansasii, ATCC12478, pH 6.6, read-out: M. kans. ATCC 12478 MIC, Middlebrook 7H9 with OADC, pH 6.6, MABA
[3] = system: M. avium ssp. avium CNCTC My 80/72 (ATCC 15769); experiment: Antimycobacterial microdilution MABA, M. avium; format: cell-based, Mycobacterium avium; conditions: for MIC: Mycobacterium avium, ATCC15769, pH 6.6, read-out: M. avium ATCC 15769 MIC
[4] = system: Staphylococcus aureus H 5996/08 methicillin resistant; experiment: microbe, parasite or virus in culture; format: cell-based; conditions: for MIC: Staphylococcus aureus, MRSA, read-out: MIC MRSA
[5] = system: Escherichia coli CCM 4517; experiment: Antibacterial microdilution broth, EC; format: cell-based; conditions: Escherichia coli, read-out: MIC EC
[6] = system: Aspergillus fumigatus 231; experiment: Antifungal microdilution broth, AF; format: cell-based; conditions: read-out: MIC AF
Candida glabrata 20/I = experiment: Antifungal microdilution broth, CG; format: cell-based; conditions: Nakaseomyces glabratus, 20/I, read-out: MIC CG
Candida tropicalis 156 = experiment: Antifungal microdilution broth, CT; format: cell-based; conditions: read-out: MIC CT
[7] = system: eight fungal strains of clinical importance; experiment: Antifungal microdilution, all tested fungal strains; format: cell-based; conditions: Trichophyton interdigitale, read-out: MIC, all tested fungal strains
Trichosporon asahii 1188 = experiment: Antifungal microdilution broth, TA; format: cell-based; conditions: read-out: MIC TA
[8] = system: Staphylococcus epidermidis H 6966/08; experiment: Antibacterial microdilution broth, SE; format: cell-based; conditions: read-out: MIC SE
Candida krusei E28 = experiment: Antifungal microdilution broth, CK; format: cell-based; conditions: Pichia kudriavzevii, read-out: MIC CK
[9] = system: Staphylococcus aureus CCM 4516/08; experiment: Antibacterial microdilution broth, SA; format: cell-based
[10] = system: Mycobacterium tuberculosis H37Rv CNCTC My 331/88 (ATCC 27294); experiment: Antimycobacterial microdilution MABA, M. tuberculosis; format: cell-based; conditions: for MIC: Mycobacterium tuberculosis; for Mtb H37Rv ATCC 27294 MIC: Middlebrook 7H9 with OADC growth supplement, pH = 6.6, MABA
[11] = system: Pseudomonas aeruginosa CCM 1961; experiment: Antibacterial microdilution broth, PA; format: cell-based; conditions: Pseudomonas aeruginosa, read-out: MIC PA
[12] = system: Candida albicans ATCC 44859; experiment: Antifungal microdilution broth, CA; format: cell-based; conditions: Candida albicans, read-out: MIC CA
[13] = system: Enterococcus sp. J 14365/08; experiment: Antibacterial microdilution broth, EF; format: cell-based; conditions: Enterococcus, read-out: MIC EF
[14] = human, HepG2 cells
[15] = system: Lichtheimia corymbifera 272; experiment: Antifungal microdilution broth, LC; format: cell-based; conditions: read-out: MIC LC
[16] = system: Mycobacterium smegmatis CCM 4622 (ATCC 607); experiment: Antimycobacterial microdilution, M. smegmatis; format: cell-based; conditions: Mycolicibacterium smegmatis, read-out: M. smeg. ATCC 607 MIC
[17] = Confirmatory prolonged HepG2 cytotoxicity, CellTox Green Cytotoxicity Assay; conditions: human, HepG2 cells
HepG2 cells = conditions: read-out: Amide -CONH- IC50; cited from earlier work
[18] = system: Mycobacterium tuberculosis H37Rv (Mtb); conditions: Šula's semisynthetic medium, pH = 5.6, turbidity, cited from earlier work
[19] = Trichophyton interdigitale, 445, 72 h
[20] = Trichophyton interdigitale, 445, 120 h
[21] = Aspergillus fumigatus, 231, 24 h
[22] = Aspergillus fumigatus, 231, 48 h
[23] = Trichosporon asahii, 1188, 24 h
[24] = Trichosporon asahii, 1188, 48 h
[25] = Staphylococcus epidermidis, H6966/08, 24 h
[26] = Staphylococcus epidermidis, H6966/08, 48 h
[27] = Staphylococcus aureus, CCM4516, 24 h, read-out: MIC SA, 24 h
[28] = Staphylococcus aureus, CCM4516, 48 h, read-out: MIC SA, 48 h
[29] = read-out: Mtb H37Rv ATCC 27294 MIC, Middlebrook 7H9 with OADC growth supplement, pH = 6.6, MABA
[30] = read-out: Mtb MIC, molar concentration
[31] = Lichtheimia corymbifera, 272, 24 h
[32] = Lichtheimia corymbifera, 272, 48 h
[33] = Middlebrook 7H9 with OADC, pH 6.6, MABA

CC(=O)Oc1ccccc1C(=O)Nc1cnc(Cl)cn1 [Compound 2b-Ac]
125 to 250 µM: MIC [7]
42.9 µM: MIC [10, 30]
50 µg/mL: MIC [3]
62.5 µM: MIC [9, 27]
12.5 µg/mL: MIC [2] | MIC [10, 29]
31.2 µg/mL: MIC [16]
125 µM: MIC ([4]; 24 h) | MIC (Trichosporon asahii 1188; [23]) | MIC (Trichosporon asahii 1188; [24]) | MIC [8, 25] | MIC (Candida krusei E28; E28, 24 h) | MIC (Candida krusei E28; E28, 48 h) | MIC [9, 28] | MIC ([12]; ATCC44859, 24 h) | MIC ([12]; ATCC44859, 48 h) | MIC [15, 31] | MIC [15, 32]
> 250 µM: MIC ([5]; CCM4517, 24 h) | MIC ([5]; CCM4517, 48 h) | MIC ([11]; CCM1961, 72 h) | MIC ([11]; CCM1961, 120 h) | MIC ([13]; SP.J14365/08, 48 h)
95.4 µM: IC50 at 24 h [14]
250 µM: MIC [1, 19] | MIC [1, 20] | MIC ([4]; 48 h) | MIC [6, 21] | MIC [6, 22] | MIC (Candida glabrata 20/I; 24 h) | MIC (Candida glabrata 20/I; 48 h) | MIC (Candida tropicalis 156; Candida tropicalis, 156, 24 h) | MIC (Candida tropicalis 156; Candida tropicalis, 156, 48 h) | MIC [8, 26] | MIC ([13]; SP.J14365/08, 24 h)

O=C(Nc1cnc(Cl)cn1)c1ccccc1O [Compound 2b]
62.50 µM: MIC MRSA ([4]; 24 h) | MIC MRSA ([4]; 48 h) | MIC ([8]; 24 h) | MIC ([8]; 48 h)
125 µM: MIC [1, 19] | MIC [1, 20] | MIC [6, 21] | MIC [6, 22] | MIC (Candida glabrata 20/I; 24 h) | MIC (Candida glabrata 20/I; 48 h) | MIC (Candida tropicalis 156; Candida tropicalis, 156, 24 h) | MIC (Candida tropicalis 156; Candida tropicalis, 156, 48 h) | MIC (Trichosporon asahii 1188; [24]) | MIC (Candida krusei E28; E28, 24 h) | MIC (Candida krusei E28; E28, 48 h) | MIC [15, 32]
15.6 µg/mL: MIC [16]
> 500 µM: MIC ([5]; CCM4517, 24 h) | MIC ([5]; CCM4517, 48 h) | MIC ([11]; CCM1961, 72 h) | MIC ([11]; CCM1961, 120 h) | MIC ([13]; SP.J14365/08, 24 h) | MIC ([13]; SP.J14365/08, 48 h)
155 µM: IC50 at 24 h [14]
12.5 µg/mL: MIC [10, 29]
50.1 µM: MIC [10, 30]
62.5 µM: MIC ([4]; 24 h) | MIC ([4]; 48 h) | MIC (Trichosporon asahii 1188; [23]) | MIC [8, 25] | MIC [8, 26] | MIC ([12]; ATCC44859, 24 h) | MIC ([12]; ATCC44859, 48 h) | MIC [15, 31]
545 µM: IC50 at 24 h [17]
50 µg/mL: MIC [2] | MIC [3]
197.7 to 198.2 °C: melting point
188 µM: IC50 at 48 h [17]
15.6 µM: MIC [9, 27] | MIC [9, 28]

CCc1ccc(NC(=O)c2cnc(Cl)cn2)cc1 [Amide R1=5-Cl R2=4-Et]
7.2 µM: IC50 (HepG2 cells)
1.56 µg/mL: Amides MIC ([18]; first value)
0.78 µg/mL: Amides MIC (value in parentheses) ([18]; second value in parentheses)

O=C(Nc1cnc(Cl)cn1)c1ccc(O)cc1 [Compound 2d]
> 500 µM: MIC [1, 19] | MIC [1, 20] | MIC ([4]; 24 h) | MIC ([4]; 48 h) | MIC ([5]; CCM4517, 24 h) | MIC ([5]; CCM4517, 48 h) | MIC [6, 21] | MIC [6, 22] | MIC (Candida glabrata 20/I; 24 h) | MIC (Candida glabrata 20/I; 48 h) | MIC (Candida tropicalis 156; Candida tropicalis, 156, 24 h) | MIC (Candida tropicalis 156; Candida tropicalis, 156, 48 h) | MIC (Trichosporon asahii 1188; [23]) | MIC (Trichosporon asahii 1188; [24]) | MIC (Candida krusei E28; E28, 24 h) | MIC (Candida krusei E28; E28, 48 h) | MIC ([11]; CCM1961, 72 h) | MIC ([11]; CCM1961, 120 h) | MIC ([12]; ATCC44859, 48 h) | MIC ([13]; SP.J14365/08, 24 h) | MIC ([13]; SP.J14365/08, 48 h) | MIC [15, 31] | MIC [15, 32]
500 µM: MIC [8, 25] | MIC [8, 26] | MIC ([12]; ATCC44859, 24 h)
≥ 500 µM: MIC [7]
>500 µM: MIC MRSA ([4]; 24 h) | MIC MRSA ([4]; 48 h)
210.9 to 212.6 °C: melting point
31.2 µM: MIC [9, 27] | MIC [9, 28]
> 100 µg/mL: MIC [2] | MIC [3] | MIC [10, 29]
>100 µg/mL: Mtb H37Rv ATCC 27294 MIC [10]
≥ 500 µg/mL: MIC [16]

CCc1ccc(C(=O)Nc2cnc(Cl)cn2)cc1 [Compound 2i]
3.13 to 6.25 µg/mL: MIC [10, 29]
>100 µg/mL: M. kans. ATCC 12478 MIC [2, 33] | M. avium ATCC 15769 MIC [3, 33]
>125 µM: MIC ([9]; 24 h, read-out: MIC SA)
> 100 µg/mL: MIC [2] | MIC [3]
3.13 µg/mL: Mtb H37Rv ATCC 27294 MIC [10]
> 125 µM: MIC [1, 19] | MIC [1, 20] | MIC ([4]; 24 h) | MIC ([4]; 48 h) | MIC ([5]; CCM4517, 24 h) | MIC ([5]; CCM4517, 48 h) | MIC [6, 21] | MIC [6, 22] | MIC (Candida glabrata 20/I; 24 h) | MIC (Candida glabrata 20/I; 48 h) | MIC (Candida tropicalis 156; Candida tropicalis, 156, 24 h) | MIC (Candida tropicalis 156; Candida tropicalis, 156, 48 h) | MIC (Trichosporon asahii 1188; [23]) | MIC (Trichosporon asahii 1188; [24]) | MIC [8, 25] | MIC [8, 26] | MIC (Candida krusei E28; E28, 24 h) | MIC (Candida krusei E28; E28, 48 h) | MIC [9, 27] | MIC [9, 28] | MIC ([11]; CCM1961, 72 h) | MIC ([11]; CCM1961, 120 h) | MIC ([12]; ATCC44859, 24 h) | MIC ([12]; ATCC44859, 48 h) | MIC ([13]; SP.J14365/08, 24 h) | MIC ([13]; SP.J14365/08, 48 h) | MIC [15, 31] | MIC [15, 32]
250 µM: IC50 at 48 h [17]
12 µM: MIC [10, 30]
264 µM: IC50 at 24 h [17]
> 250 µM: IC50 at 24 h [14]
≥ 500 µg/mL: MIC [16]
